Source: patent US20020035061A1, “COMPOSITIONS AND METHODS FOR TREATING INFECTIONS USING CATIONIC PEPTIDES ALONE OR IN COMBINATION WITH ANTIBIOTICS” (priority 1996, published 2002)

How the values were obtained:
Test in all cases: microbe, parasite or virus in culture
Type in all cases: cell-based
S. aureus = S. aureus SA25
bacterial isolates = tested on: bacterial isolates
[1] = tested on: vancomycin / teicoplanin resistant enterococci; details: for Vancomycin MIC + Peptide: in combination with the labelled peptide; for Peptide MIC + Vancomycin: in combination with vancomycin
[2] = tested on: inherently resistant microorganisms; details: B. cepacia
[3] = tested on: microorganisms with acquired resistance

## KWKSFIKKLTSAAKKVLTTGLPALIS [MBI 29A3]
S. aureus
  Ciprofloxacin MIC + Peptide: 1 µg/mL
  Peptide MIC + Ciprofloxacin: 0.5 µg/mL
Bacterial isolates; 1. Amikacin, B. cepacia BC003
  Peptide MIC Alone: >128 µg/mL
Bacterial isolates; 1. Amikacin, B. cepacia BC005
  Peptide MIC Alone: >128 µg/mL
Bacterial isolates; 1. Amikacin, E. faecium EFM004
  Peptide MIC Alone: 8 µg/mL
Bacterial isolates; 1. Amikacin, S. maltophilia SMA036
  Peptide MIC Alone: 64 µg/mL
Bacterial isolates; 1. Amikacin, S. maltophilia SMA063
  Peptide MIC Alone: 8 µg/mL
Bacterial isolates; 1. Amikacin, S. maltophilia SMA064
  Peptide MIC Alone: 8 µg/mL
Bacterial isolates; 4. Gentamicin, S. maltophilia SMA019
  Peptide MIC Alone: 2 µg/mL
Bacterial isolates; 4. Gentamicin, S. maltophilia SMA021
  Peptide MIC Alone: 2 µg/mL
Bacterial isolates; B. cepacia BC003
  Amikacin MIC + Peptide: 8 µg/mL
  Peptide MIC + Amikacin: 64 µg/mL
Bacterial isolates; B. cepacia BC005
  Amikacin MIC + Peptide: 32 µg/mL
  Peptide MIC + Amikacin: 32 µg/mL
Bacterial isolates; E. faecalis EFS003
  Peptide MIC + Vancomycin: 2 µg/mL
  Vancomycin MIC + Peptide: 2 µg/mL
Bacterial isolates; E. faecalis EFS005
  Peptide MIC + Vancomycin: 1 µg/mL
  Vancomycin MIC + Peptide: 4 µg/mL
Bacterial isolates; E. faecalis EFS011
  Peptide MIC + Vancomycin: 8 µg/mL
  Vancomycin MIC + Peptide: 4 µg/mL
Bacterial isolates; E. faecalis EFS014
  Peptide MIC + Vancomycin: 0.5 µg/mL
  Vancomycin MIC + Peptide: 1 µg/mL
Bacterial isolates; E. faecium EFM004
  Amikacin MIC + Peptide: 8 µg/mL
  Peptide MIC + Amikacin: 4 µg/mL
Bacterial isolates; E. faecium EFM006
  Peptide MIC + Vancomycin: 2 µg/mL
  Vancomycin MIC + Peptide: 4 µg/mL
Bacterial isolates; P. aeruginosa PA2
  Mupirocin MIC + Peptide: 0.1 µg/mL
  Peptide MIC + Mupirocin: 16 µg/mL
Bacterial isolates; P. aeruginosa PA3
  Mupirocin MIC + Peptide: 0.1 µg/mL
  Peptide MIC + Mupirocin: 8 µg/mL
Bacterial isolates; P. aeruginosa PA022
  Peptide MIC + Tobramycin: 0.25 µg/mL
  Tobramycin MIC + Peptide: 4 µg/mL
Bacterial isolates; P. aeruginosa PA24
  Ciprofloxacin MIC + Peptide: 16 µg/mL
  Peptide MIC + Ciprofloxacin: 0.125 µg/mL
Bacterial isolates; P. aeruginosa PA028
  Peptide MIC + Tobramycin: 0.125 µg/mL
  Tobramycin MIC + Peptide: 16 µg/mL
Bacterial isolates; P. aeruginosa PA029
  Peptide MIC + Tobramycin: 0.125 µg/mL
  Tobramycin MIC + Peptide: 16 µg/mL
Bacterial isolates; P. aeruginosa PA41
  Ciprofloxacin MIC + Peptide: 0.5 µg/mL
  Peptide MIC + Ciprofloxacin: 4 µg/mL
Bacterial isolates; S. aureus SA10
  Ciprofloxacin MIC + Peptide: 16 µg/mL
  Peptide MIC + Ciprofloxacin: 0.5 µg/mL
Bacterial isolates; S. aureus SA25
  Ciprofloxacin MIC + Peptide: 2 µg/mL
  Peptide MIC + Ciprofloxacin: 0.125 µg/mL
Bacterial isolates; S. maltophilia SMA019
  Gentamicin MIC + Peptide: 16 µg/mL
  Peptide MIC + Gentamicin: 0.125 µg/mL
Bacterial isolates; S. maltophilia SMA021
  Gentamicin MIC + Peptide: 16 µg/mL
  Peptide MIC + Gentamicin: 0.125 µg/mL
Bacterial isolates; S. maltophilia SMA029
  Peptide MIC + Tobramycin: 4 µg/mL
  Tobramycin MIC + Peptide: 4 µg/mL
Bacterial isolates; S. maltophilia SMA030
  Peptide MIC + Tobramycin: 4 µg/mL
  Tobramycin MIC + Peptide: 4 µg/mL
Bacterial isolates; S. maltophilia SMA036
  Amikacin MIC + Peptide: 32 µg/mL
  Peptide MIC + Amikacin: 16 µg/mL
Bacterial isolates; S. maltophilia SMA063
  Amikacin MIC + Peptide: 16 µg/mL
  Peptide MIC + Amikacin: 4 µg/mL
Bacterial isolates; S. maltophilia SMA064
  Amikacin MIC + Peptide: 16 µg/mL
  Peptide MIC + Amikacin: 4 µg/mL
Bacterial isolates; S. marcescens SBSM1
  Mupirocin MIC + Peptide: 100 µg/mL
  Peptide MIC + Mupirocin: 16 µg/mL
Bacterial isolates; S. marcescens SBSM2
  Mupirocin MIC + Peptide: 100 µg/mL
  Peptide MIC + Mupirocin: 64 µg/mL
Bacterial isolates; peptide + Amikacin, B. cepacia BC003
  FIC: 0.50
Bacterial isolates; peptide + Amikacin, B. cepacia BC005
  FIC: 0.38
Bacterial isolates; peptide + Amikacin, E. faecium EFM004
  FIC: 0.56
Bacterial isolates; peptide + Amikacin, S. maltophilia SMA036
  FIC: 0.38
Bacterial isolates; peptide + Amikacin, S. maltophilia SMA063
  FIC: 0.56
Bacterial isolates; peptide + Amikacin, S. maltophilia SMA064
  FIC: 0.56
Bacterial isolates; peptide + Ciprofloxacin, P. aeruginosa PA24
  FIC: 0.50
Bacterial isolates; peptide + Ciprofloxacin, P. aeruginosa PA41
  FIC: 0.63
Bacterial isolates; peptide + Ciprofloxacin, S. aureus SA10
  FIC: 0.75
Bacterial isolates; peptide + Ciprofloxacin, S. aureus SA25
  FIC: 0.63
Bacterial isolates; peptide + Mupirocin, P. aeruginosa PA2
  FIC: 0.50
Bacterial isolates; peptide + Mupirocin, P. aeruginosa PA3
  FIC: 0.50
Bacterial isolates; peptide + Mupirocin, S. marcescens SBSM1
  FIC: 0.16
Bacterial isolates; peptide + Mupirocin, S. marcescens SBSM2
  FIC: 0.35
Bacterial isolates; peptide + Vancomycin, E. faecalis EFS003
  FIC: 0.56
Bacterial isolates; peptide + Vancomycin, E. faecalis EFS005
  FIC: 0.28
Bacterial isolates; peptide + Vancomycin, E. faecalis EFS011
  FIC: 0.50
Bacterial isolates; peptide + Vancomycin, E. faecalis EFS014
  FIC: 0.52
Bacterial isolates; peptide + Vancomycin, E. faecium EFM006
  FIC: 0.52
[1]; E. faecium EFM004
  Amikacin MIC + Peptide: 8 µg/mL
  Peptide MIC + Amikacin: 4 µg/mL
[1]; E. faecium EFM020
  Amikacin MIC + Peptide: 16 µg/mL
  Peptide MIC + Amikacin: 2 µg/mL
[1]; E. faecalis EFS005
  Vancomycin MIC + Peptide: 1 µg/mL
  Peptide MIC + Vancomycin: 4 µg/mL
[1]; E. faecalis EFS011
  Vancomycin MIC + Peptide: 4 µg/mL
  Peptide MIC + Vancomycin: 8 µg/mL
[1]; E. faecalis EFS014
  Vancomycin MIC + Peptide: 1 µg/mL
  Peptide MIC + Vancomycin: 0.5 µg/mL
[1]; E. faecium EFM006
  Vancomycin MIC + Peptide: 4 µg/mL
  Peptide MIC + Vancomycin: 2 µg/mL
[2]
  Peptide MIC + Amikacin: 32 µg/mL
[2]; Amikacin section
  Peptide MIC Alone: >128 µg/mL
[3]; A. baumannii ABI002
  Gentamicin MIC + Peptide: 4 µg/mL
  Peptide MIC + Gentamicin: 1 µg/mL
[3]; A. baumannii ABI002, Gentamicin section
  Peptide MIC Alone: 2 µg/mL
[3]; E. coli EC0006
  Peptide MIC + Tobramycin: 2 µg/mL
  Tobramycin MIC + Peptide: 2 µg/mL
[3]; E. coli EC0006, Tobramycin section
  Peptide MIC Alone: 4 µg/mL
[3]; P. aeruginosa PA022
  Peptide MIC + Tobramycin: 0.25 µg/mL
  Tobramycin MIC + Peptide: 4 µg/mL
[3]; P. aeruginosa PA022, Tobramycin section
  Peptide MIC Alone: 4 µg/mL
[3]; P. aeruginosa PA041
  Gentamicin MIC + Peptide: 4 µg/mL
  Peptide MIC + Gentamicin: 4 µg/mL
[3]; P. aeruginosa PA41
  Ciprofloxacin MIC + Peptide: 0.5 µg/mL
  Peptide MIC + Ciprofloxacin: 4 µg/mL
[3]; P. aeruginosa PA41, Ciprofloxacin section
  Peptide MIC Alone: 8 µg/mL
[3]; P. aeruginosa PA041, Gentamicin section
  Peptide MIC Alone: 8 µg/mL
[3]; S. aureus, combination with Mupirocin, in µg/mL
  Peptide MIC: 4
[3]; S. maltophilia SMA027
  Peptide MIC + Tobramycin: 16 µg/mL
  Tobramycin MIC + Peptide: 4 µg/mL
[3]; S. maltophilia SMA027, Tobramycin section
  Peptide MIC Alone: 32 µg/mL
[3]; S. maltophilia SMA029
  Peptide MIC + Tobramycin: 4 µg/mL
  Tobramycin MIC + Peptide: 4 µg/mL
[3]; S. maltophilia SMA029, Tobramycin section
  Peptide MIC Alone: 16 µg/mL
[3]; peptide + Tobramycin, E. coli EC0006
  FIC: 0.75
